Assay results from publication PMC6001238, “Iterative Chemical Engineering of Vancomycin Leads to Novel Vancomycin Analogs With a High in Vitro Therapeutic Index” (Frontiers in Microbiology, 2018).
Converted amounts (≈) assume the structure as drawn. Read-outs that look alike come from different tables or passages of the source.

Tests used:
E. faecalis VSE 1 = test: MIC, broth microdilution, vancomycin-sensitive E. faecalis (VSE 1); format: cell-based, Enterococcus faecalis; conditions: for MIC: Enterococcus faecalis VSE 1 (vancomycin-sensitive), read-out: MIC; for MIC-fold improvement vs. vancomycin: VSE 1, ratio of MIC of vancomycin and MIC of analogue
In short: (§1)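 Susceptibility was scored by broth microdilution (CLSI). In one instance each vancomycin analog or control antibiotic was tested in the presence of vancomycin, 10 μM final, and ultrapure water plus non-inoculated broth were included as controls.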

E. faecalis VRE 6 = test: MIC, broth microdilution, vancomycin-resistant E. faecalis VRE 6 (VanA); format: cell-based, Enterococcus faecalis; conditions: for MIC: Enterococcus faecalis VRE 6 (vancomycin-resistant), read-out: MIC; for MIC-fold improvement vs. vancomycin: VRE 6, ratio of MIC of vancomycin and MIC of analogue
In short: as §1

E. faecalis VRE 53 = test: MIC, broth microdilution, vancomycin-resistant E. faecalis VRE 53 (VanA); format: cell-based, Enterococcus faecalis; conditions: for MIC: Enterococcus faecalis VRE 53 (vancomycin-resistant), read-out: MIC; for MIC-fold improvement vs. vancomycin: VRE 53, ratio of MIC of vancomycin and MIC of analogue
In short: as §1

E. faecalis VRE 29 = test: MIC, broth microdilution, vancomycin-resistant E. faecalis VRE 29 (VanA); format: cell-based, Enterococcus faecalis; conditions: for MIC: Enterococcus faecalis VRE 29 (vancomycin-resistant), read-out: MIC; for MIC-fold improvement vs. vancomycin: VRE 29, ratio of MIC of vancomycin and MIC of analogue
In short: as §1

E. faecalis VRE 37 = test: MIC, broth microdilution, vancomycin-resistant E. faecalis VRE 37 (VanA); format: cell-based, Enterococcus faecalis; conditions: for MIC: Enterococcus faecalis VRE 37 (vancomycin-resistant), read-out: MIC; for MIC-fold improvement vs. vancomycin: VRE 37, ratio of MIC of vancomycin and MIC of analogue
In short: as §1

[1] = tested on: Murine leukemia (L1210) cells; test: Cytostatic activity, L1210 cell proliferation; format: cell-based; conditions: mean ± SD of three experiments; highest concentration tested 250 µM; 2 days; read-out: Toxicity (IC50) L1210
In short: (§2)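 Suspensions (300,000–500,000 cells/mL) combined with equal volumes of diluted compound; 37°C; L1210 2 d / CEM 3 d / HeLa 4 d; counted by Coulter counter; IC50 vs untreated wells.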

[2] = tested on: human T-lymphocyte (CEM) cells; test: Cytostatic activity, CEM cell proliferation; format: cell-based; conditions: mean ± SD of three experiments; highest concentration tested 250 µM; 3 days; read-out: Toxicity (IC50) CEM
In short: as §2

[3] = tested on: human cervix carcinoma (HeLa) cells; test: Cytostatic activity, HeLa cell proliferation; format: cell-based; conditions: mean ± SD of three experiments; highest concentration tested 250 µM; 4 days; read-out: Toxicity (IC50) HeLa
In short: as §2

[4] = tested on: L1210, CEM and HeLa cell lines; test: Cytostatic activity, average or summary over L1210, CEM and HeLa; format: cell-based; conditions: average of L1210, CEM and HeLa; read-out: Toxicity (IC50) Average
In short: as §2

[5] = tested on: S. aureus VSSA (ATCC 6538); test: MIC, broth microdilution, vancomycin-sensitive S. aureus (VSSA/MSSA, ATCC 6538); format: cell-based, Staphylococcus aureus; conditions: for MIC: Staphylococcus aureus VSSA, read-out: MIC; for MIC-fold improvement vs. vancomycin: VSSA, ratio of MIC of vancomycin and MIC of analogue
In short: as §1

S. aureus VISA/HIP5827 = test: MIC, broth microdilution, vancomycin-intermediate S. aureus VISA HIP5827; format: cell-based, Staphylococcus aureus; conditions: for MIC: Staphylococcus aureus VISA/HIP5827, read-out: MIC; for MIC-fold improvement vs. vancomycin: VISA/HIP5827, ratio of MIC of vancomycin and MIC of analogue
In short: as §1

S. aureus VRSA = test: MIC, broth microdilution, vancomycin-resistant S. aureus (VRSA); format: cell-based, Staphylococcus aureus; conditions: for MIC: Staphylococcus aureus VRSA, read-out: MIC; for MIC-fold improvement vs. vancomycin: VRSA, ratio of MIC of vancomycin and MIC of analogue
In short: as §1

MRSA KS2 = test: MIC, broth microdilution, MRSA KS2; format: cell-based, Staphylococcus aureus; conditions: for MIC-fold improvement vs. vancomycin: MRSA KS2, ratio of MIC of vancomycin and MIC of analogue; for MIC: Staphylococcus aureus MRSA KS2, read-out: MIC
In short: as §1

MRSA KS6 = test: MIC, broth microdilution, MRSA KS6; format: cell-based, Staphylococcus aureus; conditions: for MIC-fold improvement vs. vancomycin: MRSA KS6, ratio of MIC of vancomycin and MIC of analogue; for MIC: Staphylococcus aureus MRSA KS6, read-out: MIC
In short: as §1

MRSA KS89 = test: MIC, broth microdilution, MRSA KS89; format: cell-based, Staphylococcus aureus; conditions: for MIC-fold improvement vs. vancomycin: ratio of MIC of vancomycin and MIC of analogue; for MIC: read-out: MIC
In short: as §1

MRSA KS1 = test: MIC, broth microdilution, MRSA KS1; format: cell-based, Staphylococcus aureus; conditions: for MIC-fold improvement vs. vancomycin: MRSA KS1, ratio of MIC of vancomycin and MIC of analogue; for MIC: Staphylococcus aureus MRSA KS1, read-out: MIC
In short: as §1

Row | Compound | MIC (E. faecalis VSE 1) [µM] | MIC-fold improvement vs. vancomycin (E. faecalis VSE 1) | MIC (E. faecalis VRE 6) [µM] | MIC-fold improvement vs. vancomycin (E. faecalis VRE 6) | MIC (E. faecalis VRE 53) [µM] | MIC-fold improvement vs. vancomycin (E. faecalis VRE 53) | MIC (E. faecalis VRE 29) [µM] | MIC-fold improvement vs. vancomycin (E. faecalis VRE 29) | MIC (E. faecalis VRE 37) [µM] | IC50 [1] [µM] | IC50 [2] [µM] | IC50 [3] [µM] | IC50 [4] [µM] | MIC [5] [µM] | MIC-fold improvement vs. vancomycin [5] | MIC (S. aureus VISA/HIP5827) [µM] | MIC-fold improvement vs. vancomycin (S. aureus VISA/HIP5827) | MIC (S. aureus VRSA) [µM] | MIC-fold improvement vs. vancomycin (S. aureus VRSA) | MIC-fold improvement vs. vancomycin (MRSA KS2) | also measured
1 | CNC(CC(C)C)C(=O)NC1C(=O)NC(CC(N)=O)C(=O)NC2C(=O)NC3C(=O)NC(C(=O)NC(C(=O)NCCCNC(=O)c4ccc(-c5ccc(-c6ccccc6)cc5)cc4)c4cc(O)cc(O)c4-c4cc3ccc4O)C(O)c3ccc(c(Cl)c3)Oc3cc2cc(c3OC2OC(CO)C(O)C(O)C2OC2CC(C)(N)C(O)C(C)O2)Oc2ccc(cc2Cl)C1O (stereo not drawn) [Vanc-35] | 0.20 (≈ 0.352 µg/mL) | 8 | 0.39 (≈ 0.687 µg/mL) | 513 | 6.25 (≈ 11 µg/mL) | 64 | 1.56 (≈ 2.75 µg/mL) | 256 | 1.56 (≈ 2.75 µg/mL) | 4.1 ± 0.5 | 0.98 ± 0.06 | 17 ± 2 | 7 | 0.05 (≈ 0.0881 µg/mL) | 16 | 0.05 (≈ 0.0881 µg/mL) | 128 | 1.56 (≈ 2.75 µg/mL) | 64 | 2 | MIC-fold improvement vs. vancomycin (E. faecalis VRE 37): 256; MIC (MRSA KS2): 0.39 µM (≈ 0.687 µg/mL); MIC-fold improvement vs. vancomycin (MRSA KS6): 4; MIC (MRSA KS6): 0.20 µM (≈ 0.352 µg/mL); MIC-fold improvement vs. vancomycin (MRSA KS89; MRSA KS8): 4; MIC (MRSA KS89; Staphylococcus aureus MRSA KS8): 0.20 µM (≈ 0.352 µg/mL); MIC-fold improvement vs. vancomycin (MRSA KS1): 1; MIC (MRSA KS1): 0.78 µM (≈ 1.37 µg/mL)
2 | CNC(CC(C)C)C(=O)NC1C(=O)NC(CC(N)=O)C(=O)NC2C(=O)NC3C(=O)NC(C(=O)NC(C(=O)NCC(=O)Nc4ccc(C(=O)c5ccccc5)cc4)c4cc(O)cc(O)c4-c4cc3ccc4O)C(O)c3ccc(c(Cl)c3)Oc3cc2cc(c3OC2OC(CO)C(O)C(O)C2OC2CC(C)(N)C(O)C(C)O2)Oc2ccc(cc2Cl)C1O (stereo not drawn) [Vanc-88] | ≤0.05 | ≥32 | 1.56 (≈ 2.63 µg/mL) | 128 | 12.5 (≈ 21.1 µg/mL) | 32 | 1.56 (≈ 2.63 µg/mL) | 256 | 3.13 (≈ 5.28 µg/mL) | 127 ± 32 | 32 ± 1 | 98 ± 23 | 86 | 0.39 (≈ 0.657 µg/mL) | 2 | 0.39 (≈ 0.657 µg/mL) | 16 | 0.78 (≈ 1.31 µg/mL) | 128 | 8 | MIC-fold improvement vs. vancomycin (E. faecalis VRE 37): 128; MIC (MRSA KS2): 0.10 µM (≈ 0.169 µg/mL); MIC-fold improvement vs. vancomycin (MRSA KS6): 2; MIC (MRSA KS6): 0.39 µM (≈ 0.657 µg/mL); MIC-fold improvement vs. vancomycin (MRSA KS89; MRSA KS8): 4; MIC (MRSA KS89; Staphylococcus aureus MRSA KS8): 0.20 µM (≈ 0.337 µg/mL); MIC-fold improvement vs. vancomycin (MRSA KS1): 8; MIC (MRSA KS1): 0.10 µM (≈ 0.169 µg/mL)
3 | CCCCCn1cc(-c2ccc(NC(=O)CNC(=O)C3NC(=O)C4NC(=O)C(NC(=O)C5NC(=O)C(CC(N)=O)NC(=O)C(NC(=O)C(CC(C)C)NC)C(O)c6ccc(c(Cl)c6)Oc6cc5cc(c6OC5OC(CO)C(O)C(O)C5OC5CC(C)(N)C(O)C(C)O5)Oc5ccc(cc5Cl)C4O)c4ccc(O)c(c4)-c4c(O)cc(O)cc43)cc2)nn1 (stereo not drawn) [Vanc-91] | ≤0.05 | ≥32 | 1.56 (≈ 2.68 µg/mL) | 128 | 25 (≈ 43 µg/mL) | 16 | 6.25 (≈ 10.7 µg/mL) | 64 | 6.25 (≈ 10.7 µg/mL) | 154 ± 93 | 107 ± 25 | 147 ± 11 | 136 | 0.10 (≈ 0.172 µg/mL) | 8 | 0.39 (≈ 0.67 µg/mL) | 16 | 0.39 (≈ 0.67 µg/mL) | 256 | 8 | MIC-fold improvement vs. vancomycin (E. faecalis VRE 37): 64; MIC (MRSA KS2): 0.10 µM (≈ 0.172 µg/mL); MIC-fold improvement vs. vancomycin (MRSA KS6): 8; MIC (MRSA KS6): 0.10 µM (≈ 0.172 µg/mL); MIC-fold improvement vs. vancomycin (MRSA KS89; MRSA KS8 (head; KS89 in title)): 4; MIC (MRSA KS89; Staphylococcus aureus MRSA KS8 (head; KS89 in title)): 0.20 µM (≈ 0.344 µg/mL); MIC-fold improvement vs. vancomycin (MRSA KS1): 8; MIC (MRSA KS1): 0.10 µM (≈ 0.172 µg/mL)
4 | CN[C@H](CC(C)C)C(=O)N[C@H]1C(=O)N[C@@H](CC(N)=O)C(=O)N[C@H]2C(=O)N[C@H]3C(=O)N[C@H](C(=O)N[C@H](C(=O)NCCNC(=O)/C=C/c4ccc(Cl)cc4)c4cc(O)cc(O)c4-c4cc3ccc4O)[C@H](O)c3ccc(c(Cl)c3)Oc3cc2cc(c3O[C@@H]2O[C@H](CO)[C@@H](O)[C@H](O)[C@H]2O[C@H]2C[C@](C)(N)[C@H](O)[C@H](C)O2)Oc2ccc(cc2Cl)[C@H]1O [Vanc-20] | 0.39 (≈ 0.646 µg/mL) | 4 | 1.56 (≈ 2.58 µg/mL) | 128 | 12.5 (≈ 20.7 µg/mL) | 32 | 6.25 (≈ 10.3 µg/mL) | 64 | 12.5 (≈ 20.7 µg/mL) | 138 ± 5 | 146 ± 24 | 80 ± 3 | 121 | 0.39 (≈ 0.646 µg/mL) | 2 | 0.39 (≈ 0.646 µg/mL) | 16 | 3.13 (≈ 5.18 µg/mL) | 32 | 4 | MIC (MRSA KS2): 0.20 µM (≈ 0.331 µg/mL); MIC-fold improvement vs. vancomycin (MRSA KS6): 2; MIC (MRSA KS6): 0.39 µM (≈ 0.646 µg/mL); MIC-fold improvement vs. vancomycin (MRSA KS89; MRSA KS8): 2; MIC (MRSA KS89; Staphylococcus aureus MRSA KS8): 0.39 µM (≈ 0.646 µg/mL); MIC-fold improvement vs. vancomycin (MRSA KS1): 2; MIC (MRSA KS1): 0.39 µM (≈ 0.646 µg/mL)
